Values after ≈ are worked out from the molar mass of the structure shown. Where two headings read alike, the source gives them in different places. Starred links: 1 amine or outer side, 2 acyl side, 3 side chain; linkers in the order of their positions; H or OH if unused. Non-standard residues stand in square brackets, D forms with d. Residues, ends and D or L forms follow the SMILES beside them. Groups on a side chain read outwards from the residue. *: point of attachment. X1 = CCCCCCCCCCCCCCCC(=O)N[C@@H](CCC(=O)N[C@@H](CCC(=O)N[C@@H](CCC(=O)NCCCOCCOCCOCCCNC(=O)CCC(=O)NCCCOCCOCCOCCCNC(=O)CCC(=O)NCCCOCCOCCOCCCN*)C(=O)O)C(=O)O)C(=O)O; X2 = CCCCCCCCCCCCCCCC(=O)N[C@@H](CCC(=O)N[C@@H](CCC(=O)N[C@@H](CCC(=O)NCCCOCCOCCOCCCNC(=O)CCC(=O)NCCCOCCOCCOCCCN*)C(=O)O)C(=O)O)C(=O)O; γGlu = O=C(O)[C@H](CCC(=O)[*:2])N[*:1]; Stearoyl = CCCCCCCCCCCCCCCCCC(=O)*; Suc = O=C(CCC(=O)[*:2])[*:1]; αMeK = C[C@](N)(CCCCN)C(=O)O; AEEA = NCCOCCOCC(=O)O; Aib = CC(C)(N)C(=O)O
How the values were obtained:
[1] = Solubility testing in buffer; type: physicochemical; settings: target solubility 10.0 mg/ml
Method: Prior to the testing of solubility of a peptide batch, its purity (HPLC-UV) was determined.
Acetate Buffer 50 mM pH4.5: 0.75 g C2H3C02Na,3H2O (Sigma S7545)+0.35 ml CH3CO2H 100% solution dissolved in Millipore water, adjusted to pH with diluted (1:1) CH3CO2H and diluted to 250 ml with Millipore water.
In a 4 ml Ependorph vial, an accurately weighed sample of compound was diluted in study media to obtain target concentration of 2, 6 or 10 mg/ml of pure compound. The sample vials were shacked (rock 'roll shaker) for ˜19 h. 300 μL aliquots were filtered through a Millipore “Solvinert” plate (0.45 μm-PTFE hydrophilic).
pH was measured with a micro electrode
Waters Acquity UPLC System with DAD detector
Column: Waters Peptide Column CSH C18 (130 Å; 1.7 μm; 50*2.1 mm)
Column temperature: 60° C.
Full loop (about 5 μL)—overfill factor 5
Weak et Strong wash: H2O/ACN (75/25; V/V); Seal wash: H2O/IsOH (95/5; V/V). Mobile phase:
Solvent A: 0.05% TFA in H2O; Solvent B: 0.035% TFA in CH3CN
Gradient: from 0 to 12 min B=2% to 60%, from 12 to 14 min B=60% to 100%. Column washing 100% B 1 min, column equilibration 2% B 2.5 min.
UV detector: wavelength: 220 nm.

RXFP1 = target: T1, RXFP1 (Homo sapiens, UniProt Q9HBX9); assay: OVCAR5 cAMP assay (HTRF); type: cell-based; settings: for EC50: OVCAR 5 cells expressing endogenous RXFP1, cAMP readout; for Emax: OVCAR 5 cells, maximal cAMP relative to H2-relaxin
T1 construct: OVCAR5 cells expressing endogenous RXFP1; endogenous in cells; host or cells: OVCAR5
T1 sequence (Q9HBX9 1-757): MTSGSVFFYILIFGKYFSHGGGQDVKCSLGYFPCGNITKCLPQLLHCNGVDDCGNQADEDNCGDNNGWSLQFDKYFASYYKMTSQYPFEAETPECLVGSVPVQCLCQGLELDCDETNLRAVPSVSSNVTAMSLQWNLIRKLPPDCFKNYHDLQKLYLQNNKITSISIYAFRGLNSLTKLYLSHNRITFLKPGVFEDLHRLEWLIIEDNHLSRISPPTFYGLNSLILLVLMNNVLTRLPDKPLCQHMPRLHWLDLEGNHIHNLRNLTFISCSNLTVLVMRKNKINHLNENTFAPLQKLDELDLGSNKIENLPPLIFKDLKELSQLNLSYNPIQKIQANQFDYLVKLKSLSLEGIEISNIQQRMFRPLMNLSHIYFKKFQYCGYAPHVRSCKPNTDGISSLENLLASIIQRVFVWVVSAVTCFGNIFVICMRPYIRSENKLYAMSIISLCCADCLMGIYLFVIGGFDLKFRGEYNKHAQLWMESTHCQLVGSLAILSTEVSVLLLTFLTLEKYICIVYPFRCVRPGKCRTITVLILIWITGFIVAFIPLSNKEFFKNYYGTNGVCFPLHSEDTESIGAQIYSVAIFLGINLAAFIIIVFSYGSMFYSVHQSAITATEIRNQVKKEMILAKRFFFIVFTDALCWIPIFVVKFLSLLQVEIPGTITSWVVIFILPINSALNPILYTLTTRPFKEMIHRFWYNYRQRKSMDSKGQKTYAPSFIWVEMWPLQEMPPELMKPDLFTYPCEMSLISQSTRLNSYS
Method in brief: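 Endogenous RXFP1 in OVCAR5 cells, pretreated 40 min at 37° C with 1 mM IBMX, then exposed to increasing peptide concentrations in serum-free medium for 30 min at 37° C. cAMP read by HTRF; EC50 by variable-slope sigmoidal fit, Emax as % of H2-relaxin maximal cAMP in same run.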

[2] = acetate buffer 50 mM pH 4.5, read-out: Solubility Acetate buffer pH 4.5
[3] = phosphate buffer 50 mM pH 7.4, read-out: Solubility phosphate buffer pH 7.4

| Compound | solubility [1, 2] | solubility [1, 3] | EC50 (RXFP1) | Emax (RXFP1) |
| --- | --- | --- | --- | --- |
| CCCCCCCCCCCCCCCC(=O)N[C@@H](CCC(=O)N[C@@H](CCC(=O)N[C@@H](CCC(=O)NCCCOCCOCCOCCCNC(=O)CCC(=O)NCCCOCCOCCOCCCNC(=O)CCC(=O)NCCCC[C@H](NC(=O)CNC(=O)[C@H](CCC(=O)O)NC(=O)C(C)(C)NC(=O)C(C)(C)NC(=O)[C@@H](NC(=O)[C@H](CCCCNC(C)=O)NC(=O)[C@H](C)NC(=O)[C@H](CCCNC(=N)N)NC(=O)[C@@H](NC(=O)[C@H](CCCCN)NC(=O)[C@H](CCC(=O)O)NC(=O)[C@H](CCCNC(=N)N)NC(=O)CNC(=O)[C@H](CCC(=O)O)NC(=O)[C@H](CC(C)C)NC(C)=O)C(C)C)[C@@H](C)CC)C(=O)N[C@@H](CO)C(=O)N[C@H](C(=O)N[C@@H](Cc1c[nH]c2ccccc12)C(=O)N[C@@H](CO)C(=O)N[C@H](CCCCN)C(=O)N[C@@H](CCCNC(=N)N)C(=O)N[C@@H](C)C(=O)N[C@@H](CCCCNC(C)=O)C(N)=O)[C@@H](C)O)C(=O)O)C(=O)O)C(=O)O [compound 17] (Ac-LEGREKVRAK(Ac)I[Aib][Aib]EGK([Suc-X2])STWS[dK]RAK(Ac)-NH2) | 9220 µg/mL (≈ 2260 µM) | 6810 µg/mL (≈ 1670 µM) | 4.6 nM | 91% |
| CCCCCCCCCCCCCCCC(=O)N[C@@H](CCC(=O)N[C@@H](CCC(=O)N[C@@H](CCC(=O)NCCCOCCOCCOCCCNC(=O)CCC(=O)NCCCOCCOCCOCCCNC(=O)CCC(=O)NCCCC[C@H](NC(=O)CNC(=O)[C@H](CCC(=O)O)NC(=O)C(C)(C)NC(=O)C(C)(C)NC(=O)[C@@H](NC(=O)[C@H](CCCCNC(C)=O)NC(=O)[C@H](C)NC(=O)[C@H](CCCNC(=N)N)NC(=O)[C@@H](NC(=O)[C@H](CCCCN)NC(=O)[C@H](CCC(=O)O)NC(=O)[C@H](CCCNC(=N)N)NC(=O)CNC(=O)[C@H](CCC(=O)O)NC(=O)[C@H](CC(C)C)NC(C)=O)C(C)C)[C@@H](C)CC)C(=O)N[C@@H](CO)C(=O)N[C@H](C(=O)N[C@@H](Cc1c[nH]c2ccccc12)C(=O)N[C@@H](CO)C(=O)N[C@H](CCCCN)C(=O)N[C@@H](CCCNC(=N)N)C(=O)N[C@@H](CCCCN)C(=O)N[C@@H](CCCCNC(C)=O)C(N)=O)[C@@H](C)O)C(=O)O)C(=O)O)C(=O)O [compound 18] (Ac-LEGREKVRAK(Ac)I[Aib][Aib]EGK([Suc-X2])STWS[dK]RKK(Ac)-NH2) | 6750 µg/mL (≈ 1630 µM) | 6580 µg/mL (≈ 1590 µM) | 1.54 nM | 92% |
| CCCCCCCCCCCCCCCCCC(=O)N[C@@H](CCC(=O)N[C@@H](CCC(=O)N[C@@H](CCC(=O)NCCOCCOCC(=O)NCCOCCOCC(=O)NCCOCCOCC(=O)NCCOCCOCC(=O)NCCCC[C@H](NC(=O)CNC(=O)[C@H](CCC(=O)O)NC(=O)C(C)(C)NC(=O)C(C)(C)NC(=O)[C@@H](NC(=O)[C@H](CCCCNC(C)=O)NC(=O)[C@H](C)NC(=O)[C@H](CCCNC(=N)N)NC(=O)[C@@H](NC(=O)[C@H](CCCCN)NC(=O)[C@H](CCC(=O)O)NC(=O)[C@H](CCCNC(=N)N)NC(=O)CNC(=O)[C@H](CCC(=O)O)NC(=O)[C@H](CC(C)C)NC(C)=O)C(C)C)[C@@H](C)CC)C(=O)N[C@@H](CO)C(=O)N[C@H](C(=O)N[C@@H](Cc1c[nH]c2ccccc12)C(=O)N[C@@H](CO)C(=O)NC(C)(C)C(=O)N[C@@H](CCCNC(=N)N)C(=O)N[C@@H](CCCCN)C(=O)N[C@@H](CCCCNC(C)=O)C(N)=O)[C@@H](C)O)C(=O)O)C(=O)O)C(=O)O [compound 21] (Ac-LEGREKVRAK(Ac)I[Aib][Aib]EGK([AEEA-AEEA-AEEA-AEEA-γGlu-γGlu-γGlu-Stearoyl])STWS[Aib]RKK(Ac)-NH2) | 6280 µg/mL (≈ 1530 µM) | 6590 µg/mL (≈ 1610 µM) | 0.65 nM | 93% |
| CCCCCCCCCCCCCCCC(=O)N[C@@H](CCC(=O)N[C@@H](CCC(=O)N[C@@H](CCC(=O)NCCCOCCOCCOCCCNC(=O)CCC(=O)NCCCOCCOCCOCCCNC(=O)CCC(=O)NCCCOCCOCCOCCCNC(=O)CCC(=O)NCCCC[C@H](NC(=O)CNC(=O)[C@H](CCC(=O)O)NC(=O)C(C)(C)NC(=O)C(C)(C)NC(=O)[C@@H](NC(=O)[C@H](CCCCNC(C)=O)NC(=O)[C@H](C)NC(=O)[C@H](CCCNC(=N)N)NC(=O)[C@@H](NC(=O)[C@H](CC(C)C)NC(=O)[C@H](CCC(=O)O)NC(=O)[C@H](CCCNC(=N)N)NC(=O)CNC(=O)[C@H](CCC(=O)O)NC(=O)[C@H](CC(C)C)NC(C)=O)C(C)C)[C@@H](C)CC)C(=O)N[C@@H](CO)C(=O)N[C@H](C(=O)N[C@@H](Cc1ccccc1)C(=O)N[C@@H](CO)C(=O)N[C@@](C)(CCCCN)C(=O)N[C@@H](CCCNC(=N)N)C(=O)N[C@@H](C)C(=O)N[C@@H](CCCCNC(C)=O)C(N)=O)[C@@H](C)O)C(=O)O)C(=O)O)C(=O)O [compound 23] (Ac-LEGRELVRAK(Ac)I[Aib][Aib]EGK([Suc-X1])STFS[αMeK]RAK(Ac)-NH2) | 550 µg/mL (≈ 127 µM) | 6770 µg/mL (≈ 1560 µM) | 11.1 nM | 92% |
| CCCCCCCCCCCCCCCC(=O)N[C@@H](CCC(=O)N[C@@H](CCC(=O)N[C@@H](CCC(=O)NCCCOCCOCCOCCCNC(=O)CCC(=O)NCCCOCCOCCOCCCNC(=O)CCC(=O)NCCCOCCOCCOCCCNC(=O)CCC(=O)NCCCC[C@H](NC(=O)CNC(=O)[C@H](CCC(=O)O)NC(=O)C(C)(C)NC(=O)C(C)(C)NC(=O)[C@@H](NC(=O)[C@H](CCCCNC(C)=O)NC(=O)[C@H](C)NC(=O)[C@H](CCCNC(=N)N)NC(=O)[C@@H](NC(=O)[C@H](Cc1ccccc1)NC(=O)[C@H](CCC(=O)O)NC(=O)[C@H](CCCNC(=N)N)NC(=O)CNC(=O)[C@H](CCC(=O)O)NC(=O)[C@H](CC(C)C)NC(C)=O)C(C)C)[C@@H](C)CC)C(=O)N[C@@H](CO)C(=O)N[C@H](C(=O)N[C@@H](Cc1ccccc1)C(=O)N[C@@H](CO)C(=O)N[C@@](C)(CCCCN)C(=O)N[C@@H](CCCNC(=N)N)C(=O)N[C@@H](C)C(=O)N[C@@H](CCCCNC(C)=O)C(N)=O)[C@@H](C)O)C(=O)O)C(=O)O)C(=O)O [compound 24] (Ac-LEGREFVRAK(Ac)I[Aib][Aib]EGK([Suc-X1])STFS[αMeK]RAK(Ac)-NH2) | 280 µg/mL (≈ 63.9 µM) | 6930 µg/mL (≈ 1580 µM) | 36.4 nM | 100% |
| CCCCCCCCCCCCCCCC(=O)N[C@@H](CCC(=O)N[C@@H](CCC(=O)N[C@@H](CCC(=O)NCCCOCCOCCOCCCNC(=O)CCC(=O)NCCCOCCOCCOCCCNC(=O)CCC(=O)NCCCOCCOCCOCCCNC(=O)CCC(=O)NCCCC[C@H](NC(=O)CNC(=O)[C@H](CCC(=O)O)NC(=O)C(C)(C)NC(=O)C(C)(C)NC(=O)[C@@H](NC(=O)[C@H](CCCCNC(C)=O)NC(=O)[C@H](C)NC(=O)[C@H](CCCNC(=N)N)NC(=O)[C@@H](NC(=O)[C@H](CCC(N)=O)NC(=O)[C@H](CCC(=O)O)NC(=O)[C@H](CCCNC(=N)N)NC(=O)CNC(=O)[C@H](CCC(=O)O)NC(=O)[C@H](CC(C)C)NC(C)=O)C(C)C)[C@@H](C)CC)C(=O)N[C@@H](CO)C(=O)N[C@H](C(=O)N[C@@H](Cc1ccccc1)C(=O)N[C@@H](CO)C(=O)N[C@@](C)(CCCCN)C(=O)N[C@@H](CCCNC(=N)N)C(=O)N[C@@H](C)C(=O)N[C@@H](CCCCNC(C)=O)C(N)=O)[C@@H](C)O)C(=O)O)C(=O)O)C(=O)O [compound 25] (Ac-LEGREQVRAK(Ac)I[Aib][Aib]EGK([Suc-X1])STFS[αMeK]RAK(Ac)-NH2) | 6580 µg/mL (≈ 1510 µM) | 6750 µg/mL (≈ 1550 µM) | 28.7 nM | 100% |

Reference: patent publication US11725036B2, “Modified lipidated relaxin B chain peptides and their therapeutic use” (Sanofi, priority 2018, dated 2023)
